Measurements from patent US7361665B2, “Inhibitors of c-Jun N-terminal kinases (JNK) and other protein kinases” (Vertex Pharmaceuticals Incorporated, priority 2002, dated 2008).

These molecules were tested against T1, JNK3 (Homo sapiens, UniProt P53779) (assay: JNK inhibition assay (spectrophotometric coupled-enzyme assay)). Details: activated JNK3 10 nM, 10 μM ATP, 30° C.; read-out: JNK3 Activity (Ki rating).
T1 construct: One such construct encodes amino acid residues Ser40-Glu402 of JNK3α1 and is preceded by Met and Gly residues; Met-Gly dipeptide (initiation Met plus Gly added for the NcoI site) (N); made in house; host or cells: E. coli BL21 (DE3)
Assay type: biochemical
Source text: A BLAST search of the EST database using the published JNK3α1 cDNA as a query identified an EST clone (#632588) that contained the entire coding sequence for human JNK3α1. Polymerase chain reactions (PCR) using pfu polymerase (Strategene) were used to introduce restriction sites into the cDNA for cloning into the pET-15B expression vector at the NcoI and BamHI sites. The protein was expressed in E. coli. Due to the poor solubility of the expressed full-length protein (Met 1-Gln 422), an N-terminally truncated protein starting at Ser residue at position 40 (Ser 40) was produced. This truncation corresponds to Ser 2 of JNK1 and JNK2 proteins, and is preceded by a methionine (initiation) and a glycine residue. The glycine residue was added in order to introduce an NcoI site for cloning into the expression vector. In addition, systematic C-terminal truncations were performed by PCR to identify a construct that give rise to diffraction-quality crystals. One such construct encodes amino acid residues Ser40-Glu402 of JNK3α1 and is preceded by Met and Gly residues.
Five mg of JNK3 was diluted to 0.5 mg/ml in 50 mM HEPES buffer, pH 7.5, containing 100 mM NaCl, 5 mM DTT, 20 mM MgCl2 and 1 mM ATP. GST-MKK7(DD) was added at a molar ratio of 1:2.5 GST-MKK7:JNK3. After incubation for 30 minutes at 25° C., the reaction mixture was concentrated 5-fold by ultrafiltration in a Centriprep-30 (Amicon, Beverly, Mass.), diluted to 10 ml and an additional 1 mM ATP added. This procedure was repeated three times to remove ADP and replenish ATP. The final addition of ATP was 5 mM and the mixture incubated overnight at 4° C.
The activated JNK3/GST-MKK7(DD) reaction mixture was exchanged into 50 mM HEPES buffer, pH 7.5, containing 5 mM DTT and 5% glycerol (w/v) by dialysis or ultrafiltration. The reaction mixture was adjusted to 1.1 M potassium phosphate, pH 7.5, and purified by hydrophobic interaction chromatography (at 25° C.) using a Rainin Hydropore column. […] Activated JNK3 (i.e. doubly phosphorylated JNK3) was stored at −70° C. at 0.25-1 mg/ml.
Compounds were assayed for the inhibition of JNK3 by a spectrophotometric coupled-enzyme assay. In this assay, a fixed concentration of activated JNK3 (10 nM) was incubated with various concentrations of a potential inhibitor dissolved in DMSO for 10 minutes at 30° C. in a buffer containing 0.1 M HEPES buffer, pH 7.5, containing 10 mM MgCl2, 2.5 mM phosphoenolpyruvate, 200 μM NADH, 150 μg/mL pyruvate kinase, 50 μg/mL lactate dehydrogenase, and 200 μM EGF receptor peptide. The EGF receptor peptide has the sequence […] (SEQ ID NO: 3), and is a phosphoryl acceptor in the JNK3-catalyzed kinase reaction. The reaction was initiated by the addition of 10 μM ATP and the assay plate is inserted into the spectrophotometer's assay plate compartment that was maintained at 30° C. The decrease of absorbance at 340 nm was monitored as a function of time. The rate data as a function of inhibitor concentration was fitted to competitive inhibition kinetic model to determine the Ki.
The compound numbers correspond to the compound numbers in Tables 1-3.

T1 sequence (P53779 40-402): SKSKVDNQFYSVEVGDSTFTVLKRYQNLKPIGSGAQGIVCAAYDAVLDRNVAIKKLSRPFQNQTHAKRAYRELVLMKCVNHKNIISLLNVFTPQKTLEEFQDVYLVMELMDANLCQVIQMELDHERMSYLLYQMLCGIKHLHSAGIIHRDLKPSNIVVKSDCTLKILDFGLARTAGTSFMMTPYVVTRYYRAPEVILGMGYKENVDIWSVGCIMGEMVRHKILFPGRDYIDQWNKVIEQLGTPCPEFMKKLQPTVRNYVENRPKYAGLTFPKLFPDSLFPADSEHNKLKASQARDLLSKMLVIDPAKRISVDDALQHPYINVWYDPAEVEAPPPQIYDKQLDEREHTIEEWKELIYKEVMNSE

First: COc1cccc(Nc2nccc(-c3cnc(Cc4c(Cl)cccc4Cl)[nH]3)n2)c1 [IIa-25]
Second: Clc1cccc(Cl)c1Cc1ncc(-c2ccnc(Nc3cccc(Br)c3)n2)[nH]1 [IIa-27]
The Ki of the first is lower: < 100 nM for the first, 100 to 1000 nM for the second. The first binds more tightly here.

COc1cc(Nc2nccc(-c3cnc(-c4cccnc4)n3C)n2)cc(OC)c1 [IIa-19] and COc1cccc(Nc2nccc(-c3cnc(-c4cccnc4)n3C)n2)c1 [IIa-18] fall in the same range of Ki: 100 to 1000 nM for the first, 100 to 1000 nM for the second.

First: COCn1c(-c2ccnc(Nc3cccc(OCc4ccccc4)c3)n2)cnc1-c1ccccc1 [IIa-17]
Second: c1ccc(COc2cccc(Nc3nccc(-c4cnc(-c5ccccc5)o4)n3)c2)cc1 [IIb-6]
The Ki of the first is higher: > 1000 nM for the first, 100 to 1000 nM for the second. The second binds more tightly here.

First: Clc1ccc(Nc2nccc(-c3cnc(-c4ccccc4)o3)n2)cc1 [IIb-1, (4-Chloro-phenyl)-[4-(2-phenyl-oxazol-5-yl)-pyrimidin-2yl]-amine]
Second: Fc1ccc(Nc2nccc(-c3cnc(-c4ccccc4)o3)n2)cc1 [IIb-2]
The Ki of the first is higher: > 1000 nM for the first, 100 to 1000 nM for the second.

c1ccc(Nc2nccc(-c3cnc(-c4ccccc4)o3)n2)cc1 [IIb-5] and COc1cccc(Nc2nccc(-c3cnc(-c4ccccc4)o3)n2)c1 [IIb-3] fall in the same range of Ki: 100 to 1000 nM for the first, 100 to 1000 nM for the second.

Clc1cccc(Cl)c1Cc1ncc(-c2ccnc(Nc3cccc(OCc4ccccc4)c3)n2)[nH]1 [IIa-29] and Clc1cccc(Cl)c1Cc1ncc(-c2ccnc(Nc3ccccc3)n2)[nH]1 [IIa-28] fall in the same range of Ki: 100 to 1000 nM for the first, 100 to 1000 nM for the second.

Compared with COc1cc(Nc2nccc(-c3cnc(-c4ccccc4)o3)n2)cc(OC)c1 [IIb-4], COCn1c(-c2ccnc(Nc3cc(OC)cc(OC)c3)n2)cnc1-c1ccccc1 [IIa-15] is higher in Ki: 100 to 1000 nM for the first, > 1000 nM for the second. The first binds more tightly here.

COCn1c(-c2ccnc(Nc3cccc(Br)c3)n2)cnc1-c1ccccc1 [IIa-16] and COCn1c(-c2ccnc(Nc3ccccc3)n2)cnc1-c1ccccc1 [IIa-12] cannot be ordered by Ki: > 1000 nM for the first, > 1000 nM for the second.

COCn1c(-c2ccnc(Nc3ccc(F)cc3)n2)cnc1-c1ccccc1 [IIa-11] and COCn1c(-c2ccnc(Nc3ccc([N+](=O)[O-])cc3)n2)cnc1-c1ccccc1 [IIa-13] cannot be ordered by Ki: > 1000 nM for the first, > 1000 nM for the second.

O=[N+]([O-])c1ccc(Nc2nccc(-c3cnc(-c4ccccc4)o3)n2)cc1 [IIb-7] and Cn1c(-c2ccnc(Nc3ccc([N+](=O)[O-])cc3)n2)cnc1-c1cccnc1 [IIa-21] fall in the same range of Ki: 100 to 1000 nM for the first, 100 to 1000 nM for the second.

COc1cc(Nc2nccc(-c3cnc(Cc4c(Cl)cccc4Cl)[nH]3)n2)cc(OC)c1 [IIa-26] and Clc1ccc(Nc2nccc(-c3cnc(Cc4c(Cl)cccc4Cl)[nH]3)n2)cn1 [IIa-32] fall in the same range of Ki: 100 to 1000 nM for the first, 100 to 1000 nM for the second.

Cc1nc(-c2cccs2)sc1-c1ccnc(Nc2ccc(Cl)cc2)n1 [IIc-24] and Cc1nc(-c2cccs2)sc1-c1ccnc(Nc2ccc([N+](=O)[O-])cc2)n1 [IIc-25] cannot be ordered by Ki: > 1000 nM for the first, > 1000 nM for the second.

Clc1ccc(Nc2nccc(-c3cnc(Cc4c(Cl)cccc4Cl)[nH]3)n2)cc1 [IIa-23] and O=[N+]([O-])c1ccc(Nc2nccc(-c3cnc(Cc4c(Cl)cccc4Cl)[nH]3)n2)cc1 [IIa-30] fall in the same range of Ki: 100 to 1000 nM for the first, 100 to 1000 nM for the second.

COC(=O)c1cccc(Nc2nccc(-c3cnc(Cc4c(Cl)cccc4Cl)[nH]3)n2)c1 [IIa-31] and COC(=O)c1cccc(Nc2nccc(-c3cnc(-c4cccnc4)n3C)n2)c1 [IIa-22] fall in the same range of Ki: 100 to 1000 nM for the first, 100 to 1000 nM for the second.

With Cn1c(-c2ccnc(Nc3cccc(Br)c3)n2)cnc1-c1cccnc1 [IIa-20] the Ki was 100 to 1000 nM.
